Results reported in patent US7312193B2, “Calcium phosphopeptide complexes” (The University of Melbourne, priority 1997, dated 2007).
Square brackets hold non-standard residues; d marks the D form. Ends that are not written are not given here. pT = C[C@@H](OP(=O)(O)O)[C@H](N)C(=O)O; pS = N[C@@H](COP(=O)(O)O)C(=O)O

Key:
[1] = CPP and synthetic peptide binding to HA at 37° C.; settings: affinity constant
Excerpt: Similarly, we investigated the adsorption of the CPP and synthetic homologues and analogues onto HA (Table 2).

[2] = Calcium phosphate binding by CPP and synthetic homologues and analogues; settings: for Vca: calcium bound per peptide; for VPi: inorganic phosphate bound per peptide; for Ca bound per molecule / Pi bound per molecule: maximal binding, 0.1% w/v peptide; for Ca/P: ratio of bound Ca to bound Pi
Excerpt: Casein phosphopeptides containing the Ser(P) cluster, i.e. the core sequence motif Ser(P)-Ser(P)-Ser(P)-Glu-Glu-(SEQ ID NO: 5), have a marked ability to stabilize calcium phosphate in solution. Solutions containing 0.1% w/v αs1(59-79) (SEQ ID NO: 1) at various pH, calcium and phosphate concentrations, but constant ionic strengths were used to characterize the peptide's interaction with calcium phosphate.
The ion activity products for the various calcium phosphate phases [hydroxyapatite (HA); octacalcium phosphate (OCP); tricalcium phosphate (TCP); amorphous calcium phosphate (ACP); and dicalcium phosphate dihydrate (DCPD) were determined from the free calcium and phosphate concentrations at each pH using a computer program that calculates the ion activity coefficients through the use of the expanded Debye-Hückel equation and takes into account the ion pairs CaHPO4^o, CaH2PO4^+, CaPO4^−and CaOH^+ the dissociation of H3PO4 and H2O and the ionic strength. […] The peptide αs1(59-79) (SEQ ID NO: 1) binds to forming ACP clusters producing a metastable solution preventing ACP growth to the critical size required for nucleation and precipitation. The binding of αs1(59-79) (SEQ ID NO: 1) to ACP results in the formation of colloidal complexes with the unit formula [αs1(59-79) (SEQ ID NO: 1)(ACP)8]n where n is equal to or greater than one. It is likely that the predominant form is n=6 as αs1(59-79) (SEQ ID NO: 1) cross-linked with glutaraldehyde in the presence of ACP runs as a hexamer on polyacrylamide gel electrophoresis.
The relationship between CPP structure and interaction with amorphous calcium phosphate was investigated using a series of synthetic peptide homologues and analogues indicated in Table 1.

Substance | K [1] | Vca [2] [mol/mol] | VPi [2] [mol/mol] | Ca bound per molecule [2] [per molecule] | Pi bound per molecule [2] [per molecule] | Ca/P [2] | calcium phosphate binding [2]
AcGlu-Ser(P)-Ile-Ser(P)-Ser(P)-Ser(P)-Glu-GluNHMe [αs1(63-70)] | 10,370 ml/μmol | 12 | 8 | 12 | 8 | 1.5 | –
AΣAE (A[pS]AE) | – | 0 | 0 | – | – | – | –
AΣAΣAE (A[pS]A[pS]AE) | – | 0 | 0 | – | – | – | –
AΣAΣAΣAE (A[pS]A[pS]A[pS]AE) | – | 2 | 1 | – | – | 1.5 | –
AΣAΣAΣAΣAE (A[pS]A[pS]A[pS]A[pS]AE) | – | 6 | 4 | – | – | 1.5 | –
DΣΣEE (D[pS][pS]EE) | 6,579 ml/μmol | 2 | 1 | – | – | 2.0 | –
EAIAΣAEA (EAIA[pS]AEA) | – | 0 | 0 | – | – | – | –
EΣLΣΣΣEE [β(14-21)] | – | 12 | 8 | – | – | 1.5 | –
EΣΣEE (E[pS][pS]EE) | 1,513 ml/μmol | 2 | 1 | – | – | 2.0 | –
Gln-Met-Glu-Ala-Glu (QMEAE) [αs1(59-63)] | – | 0 | 0 | – | – | – | did not bind calcium phosphate
IAΣAEA (IA[pS]AEA) | – | 0 | 0 | – | – | – | –
IVPN[pS]VEQ [αs1(71-78)] | – | 0 | 0 | – | – | – | did not bind calcium phosphate
QMEAEΣIΣΣΣEEIVPNΣVEQK (QMEAE[pS]I[pS][pS][pS]EEIVPN[pS]VEQK; listed as Bos sp.) [αs1(59-79), tryptic casein phosphopeptide] | 415 mL/µmol | 24 | 16 | 24 | 16 | 1.5 | –
RELEELNVPGEIVEΣLΣΣΣEESITR (RELEELNVPGEIVE[pS]L[pS][pS][pS]EESITR; listed as Bos sp.) [β(1-25), tryptic casein phosphopeptide] | – | 24 | 16 | – | – | 1.5 | –
SΣΣEE (S[pS][pS]EE) | – | 2 | 1 | – | – | 2.0 | –
SθθEE (S[pT][pT]EE) | – | 2 | 1 | – | – | 2.0 | –
TθθEE (T[pT][pT]EE) | 1,013 ml/μmol | – | – | – | – | – | –
[pS][pS][pS]EE [ΣΣΣEE] | 12,845 ml/μmol | 9 | 6 | – | – | 1.5 | –
θTθEE ([pT]T[pT]EE) | 837 mL/µmol | – | – | – | – | – | –
θθTEE | 1,799 ml/μmol | – | – | – | – | – | –
